Laboratory results taken from US6391907B1, “Indoline derivatives” (American Home Products Corporation, priority 1999, dated 2002).
Values joined by “and” are separate entries in the source; they are usually repeats but may differ in a detail not shown here. Equal values may be shown once.

system: not given; test: not given; conditions: not given

melting point	Structure (SMILES)
264 to 266 °C	N#Cc1cc(-c2ccc3c(c2)C2(CCCC2)C(=O)N3)ccc1F
269 °C	O=C1Cc2cc(-c3cccc([N+](=O)[O-])c3)ccc2N1 [Example 1, 5-(3-Nitro-phenyl)-1,3-dihydro-indol-2-one]
188 to 189 °C	CC1(C)C(=O)Nc2ccc(-c3cccc(Cl)c3)cc21 [Example 4, 5-(3-Chloro-phenyl)-3,3-dimethyl-1,3dihydro-indol-2-one]
118 to 120 °C	CCC1C(=O)Nc2ccc(-c3cccc(Cl)c3)cc21 (stereo not drawn) [Example 6, 5-(3-Chloro-phenyl)-3-ethyl-1,3dihydro-indol-2-one]
195 to 197 °C	CCC1(CC)C(=O)Nc2ccc(-c3cccc(Cl)c3)cc21 [Example 7, 5-(3-Chloro-phenyl)-3,3-diethyl-1,3-dihydro-indol-2-one]
> 190 °C (dec.)	CC#CC1(OC)C(=O)Nc2ccc(-c3cccc(Cl)c3)cc21 (stereo not drawn) [Example 9, 5-(3-Chloro-phenyl)-3-methoxy-3-prop-1-ynyl-1,3-dihydro-indol-2-one]
169 to 171 °C	O=C1Cc2cc(-c3cccc(Cl)c3)ccc2N1 [Example 10, 5-(3-Chloro-phenyl)-1,3-dihydro-indol-2-one]
159 to 161 °C	O=C1Nc2ccc(-c3cccc(Cl)c3)cc2C12OCCO2 [Example 11, 5′-(3-Chlorophenyl)spiro[1,3-dioxolane-2,3′-[3H]indol]-2′(1′H)-one]
242 to 244 °C	O=C1Nc2ccc(-c3cccc(Cl)c3)cc2C12OCCCO2 [Example 12, 5′-(3-Chlorophenyl)spiro[1,3-dioxane-2,3-[3H]indol]-2′(1′H)-one]
238 to 240 °C	O=C1Nc2ccc(-c3cccc([N+](=O)[O-])c3)cc2C12CCCC2 [Example 13, 5′-(3-nitrophenyl)spiro[cyclopentane-1,3′-[3H]indol]2′(1′H)-one]
188 to 189 °C	O=C1Nc2ccc(-c3ccc(F)c(Cl)c3)cc2C12CCCCC2 [Example 20, 5′-(3Chloro-4-fluorophenyl)spiro[cyclohexane-1,3′-[3H]indol]-2′(1′H)-one]
171 to 172 °C	O=C1Nc2ccc(-c3cccc(F)c3)cc2C12CCCCC2 [Example 21, 5′-(3-Fluorophenyl)spiro[cyclohexane-1,3′-[3H]indol]-2′(1′H)-one]
180 to 183 °C	O=C1Nc2ccc(-c3cc(F)cc(F)c3)cc2C12CCCCC2 [Example 22, 5′-(3,5-Difluorophenyl)spiro[cyclohexane1,3′-[3H]indol]-2′(1′H)-one]
178 to 180 °C	O=C1Nc2ccc(-c3cc(F)cc(Cl)c3)cc2C12CCCCC2 [Example 27, 5′-(3-Chloro-5-fluorophenyl)spiro[cyclohexane-1,3′-[3H]indol]-2′(1′H)-one]
196 to 198 °C	O=C1Nc2ccc(-c3cccc([N+](=O)[O-])c3)cc2C12CCCCC2 [Example 30, 5′-(3-Nitrophenyl)spiro[cyclohexane-1,3′-[3H]indol]-2′(1′H)-one]
188 to 190 °C	N#Cc1csc(-c2ccc3c(c2)C2(CCCCC2)C(=O)N3)c1 [Example 38, 5-(1′,2′-Dihydro-2′-oxospiro[cyclohexane-1,3′-[3H]indol]-5′-yl)-thiophene-3-carbonitrile]
243 to 245 °C	N#Cc1coc(-c2ccc3c(c2)C2(CCCCC2)C(=O)N3)c1 [Example 40, 5-(1′,2′-Dihydro-2′-oxospiro[cyclohexane-1,3′-[3H]indol]-5′-yl)-3-furancarbonitrile]
210 °C	Cn1c(-c2ccc3c(c2)C2(CCCCC2)C(=O)N3)ccc1[N+](=O)[O-] [Example 45, 5′-(5-Nitro-1-methyl-pyrrol-2-yl)spiro[cyclohexane-1,3′-[3H]indol]-2′(1′H)-one]
211 to 213 °C	O=C1Nc2ccc(-c3cccc4[nH]ccc34)cc2C12CCCCC2 [Example 46, 5′-(1H-Indol-4-yl)spiro[cyclohexane-1,3′-[3H]indol]-2′(1′H)-one]

melting point	Structure (SMILES)
190 to 191 °C	N#Cc1cccc(-c2ccc3c(c2)C2(CCCCC2)C(=O)N3)c1 [Example 47]
217 °C	N#Cc1cc(F)cc(-c2cc(Br)c3c(c2)C2(CCCCC2)C(=O)N3)c1 [Example 51, 3-(7′-Bromo-1′,2′-dihydro-2′-oxospiro[cyclohexane-1,3′-[3H]indol]-5′-yl)-5-fluoro-benzonitrile]
196 °C	N#Cc1cc(F)cc(-c2cc([N+](=O)[O-])c3c(c2)C2(CCCCC2)C(=O)N3)c1 [Example 52, 3-(7′-Nitro-1′,2′-dihydro-2′-oxospiro[cyclohexane-1,3′-[3H]indol]-5′-yl)-5-fluoro-benzonitrile]
241 to 243 °C	N#Cc1cc(F)cc(-c2cc(N)c3c(c2)C2(CCCCC2)C(=O)N3)c1 [Example 53, 3-(7′-Amino-1′,2′-dihydro-2′-oxospiro[cyclohexane-1,3′-[3H]indol]-5′-yl)-5-fluoro-benzonitrile]
256 to 258 °C	Cc1c(-c2ccc3c(c2)C2(CCCCC2)C(=O)N3)sc2ccc(Cl)cc12 [Example 58, 5′-(5-Chloro-3-methylbenzo[b]thien-2-yl)spiro[cyclo-hexane-1,3′-[3H]indol]-2′(1′H)-one]
258 to 260 °C	N#Cc1ccc(-c2ccc3c(c2)C2(CCCCC2)C(=O)N3)cc1F [Example 63, 5′-(4-Cyano-3-fluorophenyl)-spiro[cyclohexane-1,3′-[3H]indol]-2′(1′H)-one]
206.5 to 207.8 °C	CC1(C)C(=O)Nc2ccc(-c3ccc(F)c(Cl)c3)cc21 [Example 66, 5-(3-Chloro-4-fluoro-phenyl)-3,3-dimethyl1,3-dihydro-indol-2-one]
200.2 to 202 °C	CC1(C)C(=O)Nc2ccc(-c3cccc(C#N)c3)cc21 [Example 67, 3-(3,3-Dimethyl-2-oxo-2,3-dihydro-1H-indol-5-yl)-benzonitrile]
192.3 to 193 °C	Cc1cc(C#N)sc1-c1ccc2c(c1)C(C)(C)C(=O)N2 [Example 69, 5(3,3-Dimethyl-2-oxo-2,3dihydro-1H-indol-5-yl)-4methyl thiophene-2-carbonitrile]
205.9 to 206.8 °C	CC1(C)C(=O)Nc2ccc(-c3cc(F)cc(Cl)c3)cc21 [Example 70, 5-(3-Chloro-5-fluoro-phenyl)-3,3-dimethyl-1,3-dihydro-indol-2-one]
231.2 to 232.7 °C	CC1(C)C(=O)Nc2ccc(-c3cc(F)cc([N+](=O)[O-])c3)cc21 [Example 71, 5-(3-Fluoro-5-nitro-phenyl)-3,3-dimethyl-1,3-dihydro-indol-2-one]
199.6 to 201.4 °C	CC1(C)C(=O)Nc2ccc(-c3coc(C#N)c3)cc21 [Example 72, 4-(3,3-Dimethyl-2-oxo-2,3-dihydro-1H-indol-5-yl)-furan-2-carbonitrile]
202 to 204 °C	O=C1Nc2ccc(-c3ccc(F)c(Cl)c3)cc2C12CCCC2 [Example 76, 5′-(3-Chloro-4fluorophenyl)-spiro[cyclopentane-1,3′-[3H]indol]-2′(1′H)-one]
217 to 219 °C	N#Cc1cccc(-c2ccc3c(c2)C2(CCCC2)C(=O)N3)c1 [Example 77, 5′-(3-Cyanophenyl)-spiro[cyclopentane-1,3′-[3H]indol]-2′(1′H)-one]
223 to 225 °C	CC1(C)C(=O)Nc2ccc(-c3ccc([N+](=O)[O-])s3)cc21 [Example 83, 3,3-Dimethyl-5-(5-nitro-thiophene-2-yl)-1,3-dihydro-indol-2-one]
168.4 to 170.2 °C	CC(C)(C)OC(=O)n1cccc1-c1ccc2c(c1)C(C)(C)C(=O)N2 [Example 84, 2-(3,3-Dimethyl-2-oxo-2,3-dihydro-1H-indol-5yl)-pyrrole-1-carboxylic acid tert-butyl ester]
293.9 to 294.2 °C (dec.)	CC1(C)C(=O)Nc2ccc(C3([N+](=O)[O-])C=CC=N3)cc21 (stereo not drawn) [Example 85, 2-(3,3-Dimethyl-2-oxo-2,3-dihydro-1H-indol-5-yl)-2-nitro-pyrrole]
255 to 256 °C	CC1(C)C(=O)Nc2ccc(-c3ccc(C#N)s3)cc21 [Example 86, 5-(3,3-Dimethyl-2-oxo-2,3-dihydro-1H-indol-5-yl)-thiophene2-carbonitrile]
270 to 272 °C	CC1(C)C(=O)Nc2ccc(-c3cccc(C#N)c3F)cc21 [Example 87, 3(3,3-Dimethyl-2-oxo-2,3-dihydro-1H-indol-5-yl)-2-fluoro-benzonitrile]

system: rat uterine decidualization; test: Rat decidualization assay; type: in vivo; conditions: @ 3 mg/kg; rat decidualization, antiprogestational mode
Procedure: 1. Rat Decidualization Assay
The animals are treated once daily for seven days.
Uteri are removed and trimmed of fat.
Decidual response: [(D-C)/C]×100%

Decid. IC50 mg/kg [% @ 3]	Structure (SMILES)
50	Cc1cc(C#N)sc1-c1ccc2c(c1)C1(CCCC1)C(=O)N2 [Example 73]

same assay, conditions: @ 3 mg/kg; rat decidualization, antiprogestational mode; read-out: Decid. IC50 mg/kg

Structure (SMILES)	inhibition in vivo at 3 mg/kg [%]
N#Cc1cccc(-c2ccc3c(c2)C2(CCCC2)C(=O)N3)c1 [Example 77, 5′-(3-Cyanophenyl)-spiro[cyclopentane-1,3′-[3H]indol]-2′(1′H)-one]	60
N#Cc1cc(F)cc(-c2ccc3c(c2)C2(CCCC2)C(=O)N3)c1 [Example 80, 5′-(3-Cyano-5-fluorophenyl)-spiro[cyclopentane-1,3′-[3H]indol]-2′(1′H)-one]	70

same assay, conditions: @ 10 mg/kg; rat decidualization, antiprogestational mode; read-out: Decid. IC50 mg/kg

Structure (SMILES)	inhibition in vivo at 10 mg/kg [%]
N#Cc1cccc(-c2ccc3c(c2)C2(CCCCC2)C(=O)N3)c1 [Example 47]	50

same assay, conditions: p.o.; half-maximal decrease in EC50 progesterone induced decidual response, rats

IC50	Structure (SMILES)
0.21 mg/kg and 0.14 mg/kg	CC#C[C@]1(O)CC[C@H]2[C@@H]3CCC4=CC(=O)CCC4=C3[C@@H](c3ccc(N(C)C)cc3)C[C@@]21C [RU486]

same assay, conditions: s.c.; half-maximal increase in decidual response (uterine wet weight), ovariectomized rats; individual studies

Structure (SMILES)	EC50
C#C[C@]1(O)CC[C@H]2[C@@H]3CCC4=CC(=O)CC[C@@H]4[C@H]3C(=C)C[C@@]21CC [3-Ketodesogestrel]	0.10 mg/kg and 0.06 mg/kg and 0.11 mg/kg
C#C[C@]1(O)CC[C@H]2[C@@H]3CCC4=CC(=O)CC[C@@H]4[C@H]3CC[C@@]21CC [Levonorgestrel]	0.08 mg/kg and 0.12 mg/kg and 0.09 mg/kg (2×)
